From patent US8410130B2, “Synthesis of 8H-3A-aza-cyclopenta [A ]indenes and 5,10-dihydropyrrolo[1,2-B]isoquinolines derivatives and their use as antitumor therapeutic agents” (Academia Sinica, priority 2007, dated 2013) come the findings set out here.

One data set concerns CCRF-CEM/VBL. The data set can be described thus: In vitro cytotoxicity, XTT assay, vinblastine resistant subline. It is filed as cell-based, human. The note with it: for IC50: Homo sapiens, CCRF-CEM, XTT assay, 72-hr incubation; for fold of cross-resistant, CCRF-CEM/VBL vs IC50 of the parent cell line: numbers in brackets. From the text: (§1) Human colon carcinoma HCT-116 cells, human prostate adenocarcinoma PC-3 and adenocarcinoma SK-OV-3 cells were obtained from American Type Culture Collection (ATCC, Rockville, Md.). Human mammary carcinoma (MX-1) tumor cells were obtained from MSKCC cell bank. The CCRF-CEM human lymphoblastic leukemia cells and their vinblastine resistant subline (CCRF-CEM/VBL, 680-fold resistance in vitro) were obtained from Dr. William Beck of the University of Illinois, Chicago, and CCRF-CEM/Taxol (330-fold resistance in vitro). Resistant cells CCRF-CEM/taxol were produced by exposing the parent cells to increasing sublethal concentration (IC50-IC90) of paclitaxel for six months.
(§2) In preparation for in vitro cytotoxicity assays, cells were cultured at an initial density 2-5×10^4 cells per milliliter. They were maintained in a 5% CO2-humidified atmosphere at 37° C. in RPMI medium 1640 (GIBCO/BRL) containing penicillin (100 units/mL), streptomycin (100 μg/mL, GIBCO/BRL), and 5% heat-inactivated FBS. For cells grown in suspension (such as CCRF-CEM and its sublines), cytotoxicity was measured, by using XTT microculture method in 96-well microtiter plates (Scudiero D A et al., Cancer Res. 1988, 48, 4827-4833). For solid tumor cells growing in a monolayer (such as MX-1 and HCT-116), cytotoxicity of the drug was determined, in duplicate, in 96-well microtiter plates by using the sulforhodamine B method (Skehan P et al., J. Natl. Cancer Inst 1990, 82, 1107-1112). For both methods, the absorbance of each well was measured with a microplate reader (Power Wave XS, Bio-Tek, Winooski, Vt.) after 72-hr incubation as described previously (Chou T-C et al., Proc. Natl. Acad. Sci. USA 2001, 98, 8113-8118). Dose-effect relationship data from 6 to 7 concentrations of each drug, in duplicate, were analyzed by using a computer program (Chou T-C et al., ComboSyn, Inc., Paramus, N J. 2005) based on the median-effect principle and plot (Chou T-C et al., Adv. Enzyme Regul. 1984, 22, 27-55; Chou T-C, Pharmacol. Rev. 2006, 58, 621-681).
(§3) The IC50 is defined by the concentration required to inhibit tumor cell growth by 50%. […] The growth inhibition of the compounds disclosed herein against human lymphoblastic leukemic cells (CCRF-CEM) and its drug-resistant sublines (resistant to vinblastine and taxol, CCRF-CEM/VBL and CCRF-CEM/taxol, respectively) is also shown in Table 5. […] Thus, the compounds disclosed herein are effective against multiple drug resistant tumors.

The subject of data set [1] is CCRF-CEM human lymphoblastic leukemia cells. The experiment in a line: In vitro cytotoxicity, XTT assay, 72-hr incubation. Type of data set: cell-based. The following applies: Homo sapiens, CCRF-CEM.
Text: as §1, §2, §3
A general note: Tetrazolium dyes change colour on reduction, which living cells bring about.

Data set [2] deals with human mammary carcinoma MX-1 xenograft. The experiment in a line: Therapeutic effect in nude mice bearing MX-1 xenograft. The note with it: intravenous injection. It is filed as in vivo. The protocol: FIGS. 2A-B illustrates the therapeutic effect of DA-1090, 1099, 1124, 1012 and 1107 in nude mice bearing human mammary carcinoma MX-1 xenograft (i.v. inj, n=3-4), average tumor size changes (FIG. 2A) and average body weight changes (FIG. 2B).
(§4) Athymic nude mice bearing the nu/nu gene were obtained from NCI, Frederick, Md. and used for all human tumor xenografts. Male nude mice, 6 weeks or older, weighing 20-24 g or more were used. Compounds were administered via the tail vein for i.v. injection or infusion as described previously (Chou T-C et al., Proc. Natl. Acad. Sci. USA 2001, 98, 8113-8118). Various formulations were prepared for injections into the mice for chemotherapeutic studies. As an example, a drug was dissolved in DSMO to make a 25 mg/ml fresh solution, 0.4 ml of this solution was mixed with 0.3 ml of Tween 80, plus 1.3 ml to make 2 ml of 5 mg/ml solution. Bolus injection volume was 0.1-0.2 ml per mouse.
Athymic nude mice bearing the nu/nu gene were used for human breast tumor MX-1 xenograft (FIGS. 2, 2A and 2B). Nude mice were obtained from National Cancer Institute, Frederick, Md. Male mice, 6 weeks old or older, weighing 22 g or more were used for experiments with subcutaneous tumor inoculation as described previously (Chou T-C, Pharmacol. Rev. 2006, 58, 621-681). Drug was administrated via the tail vein by iv injection. Tumor volumes were assessed by measuring length×width×height (or width) by using caliper. An example of vehicle used was 20 μL DMSO in 180 μL saline. All animal studies were conducted in accordance with the guidelines of the U.S. National Institutes of Health Guide for the Care and Use of Animals and the protocol approved by the Institutional Animal Care and Use Committee.

Data set [3] deals with Human mammary carcinoma (MX-1) tumor cells. The experiment in a line: In vitro cytotoxicity, sulforhodamine B (SRB) assay. Type of data set: cell-based. The note with it: Homo sapiens, 72-hr incubation.
Text: as §1, §2, §3
Background: The SRB assay estimates cell density from bound dye.

In data set [4] the test system is Human colon carcinoma HCT-116 cells. The data set is described as above. Type of data set: cell-based. The following applies: Homo sapiens, HCT-116, 72-hr incubation.
Text: as §1, §2, §3

In the next data set the test system is CCRF-CEM/Taxol. The experiment in a line: In vitro cytotoxicity, XTT assay, taxol resistant subline. Type of data set: cell-based, human. The following applies: for IC50: Homo sapiens, CCRF-CEM, XTT assay, 72-hr incubation; for fold of cross-resistant, CCRF-CEM/Taxol vs IC50 of the parent cell line: numbers in brackets.
Text: as §1, §2, §3

For data set [5], the system named is ovarian adenocarcinoma SK-OV-3 xenograft. The experiment in a line: Therapeutic effect in nude mice bearing SK-OV-3 xenograft. The following applies: intravenous injection, on day 22. It is filed as in vivo. The protocol:
FIGS. 4A-B illustrates the therapeutic effects of DA-1090, 1099, 1107 in nude mice bearing ovarian adenocarcinoma SK-OV-3 xenograft (i.v. inj., n=3), average tumor size changes (FIG. 4A) and average body weight changes (FIG. 4B).
as §4
(§5) The therapeutic effects of N-mustard DA-1099 against human prostate adenocarcinoma PC-3 s.c. xenograft in nude mice is shown in FIGS. 3, 3A and 3B. xenograft (i.v. inj., n=3), average tumor size changes (FIG. 3A) and average body weight changes (FIG. 3B). […] Under optimal therapeutic conditions, intravenous injection, of DA-1090, 1099, and 1107, 20 (QD×4), 50 (QD×3), and 20 (QD×4) mg/kg, respectively, yielded 53%, 78%, and 71% tumor suppression, respectively, on day 22.

The test system of data set [6] is human prostate adenocarcinoma PC-3 xenograft. The data set can be described thus: Therapeutic effect in nude mice bearing PC-3 xenograft. Type of data set: in vivo. The following applies: 50 mg/kg, QD×4, i.v. inj. The protocol: FIGS. 3A-B illustrates the therapeutic effect of DA-1099 in nude mice bearing human prostate adenocarcinoma PC-3 xenograft (i.v. inj., n=3), average tumor size changes (FIG. 3A) and average body weight changes (FIG. 3B).
as §4, §5

Setting [7] is: 18 mg/kg, every other two days (Q2D), two times.
[8] abbreviates: 30 mg/kg, every other two days (Q2D), two times.
Setting [9] is: 15 mg/kg, every other two days (Q2D), two times.

Consider `CNC(=O)OCc1c(COC(=O)NC)c(-c2ccc(OC)cc2)n2c1Cc1ccccc1-2` [DA-1012, Methylcarbamic acid 3-(4-methoxy-phenyl)-2-methylcarbamoyloxymethyl-8H-3a-azacyclopenta[a]inden-1-ylmethyl ester], for which the IC50 with CCRF-CEM/VBL turned out to be 70 nM; in data set [1], 49 nM; in data set [3], 1940 nM; in data set [4] it was 2740 nM; with CCRF-CEM/Taxol it was 58 nM. For the same compound, the “fold of cross-resistant, CCRF-CEM/VBL vs IC50 of the parent cell line” value (“fold of cross-resistant, CCRF-CEM/VBL” below) in the data set with CCRF-CEM/VBL is “[1.4x]”. Besides, the “antitumor therapeutic effect (tumor size)” value (from here on “antitumor therapeutic effect”) in data set [2] (5 mg/kg, daily (QD) 3 times) is recorded as “tumor total disappearance”. For the same compound, the toxicity result in data set [2] (5 mg/kg, daily (QD) 3 times) is on record as “low toxicity”. In addition, in the data set on CCRF-CEM/Taxol, the “fold of cross-resistant, CCRF-CEM/Taxol vs IC50 of the parent cell line” value (shortened to “fold of cross-resistant, CCRF-CEM/Taxol”) is “[1.2x]”.
Regarding `Cc1c(CO)c(CO)c2n1-c1ccccc1C2` [DA-1090, (2-Hydroxymethyl-3-methyl-8H-3a-aza-cyclopenta[a]inden-1-yl)methanol], the tumor suppression in data set [5] (20 mg/kg (QD×4)) was found to be 53%. Moreover, the IC50 in the data set with CCRF-CEM/VBL stood at 29.7 nM; in data set [1], 76 nM; in data set [3], 357 nM; in data set [4] it was 332 nM; in the data set with CCRF-CEM/Taxol it was 66.3 nM. Also, in the data set with CCRF-CEM/VBL, the “fold of cross-resistant, CCRF-CEM/VBL” value is “[0.39x]^c”. Besides, in data set [2] (setting [7]), the “antitumor therapeutic effect” value was “tumor total disappearance”. For the same compound, the toxicity result in data set [2] (setting [7]) is recorded as “low toxicity”. Moreover, the “fold of cross-resistant, CCRF-CEM/Taxol” value in the data set with CCRF-CEM/Taxol is “[0.87x]”.
As for `CCc1c(CO)c(CO)c2n1-c1ccccc1C2` [DA-1099, (3-Ethyl-2-hydroxymethyl-8H-3a-azacyclopenta[a]inden-1-yl)methanol], the tumor suppression in data set [5] (50 mg/kg (QD×3)) was determined as 78%. Further, the IC50 in the data set on CCRF-CEM/VBL was 133 nM; in data set [1], 356 nM; in data set [3] it was 1080 nM; in data set [4] it was 825 nM; in the data set on CCRF-CEM/Taxol it was 229 nM. Moreover, the “fold of cross-resistant, CCRF-CEM/VBL” value in the data set with CCRF-CEM/VBL was “[0.37x]”. The tumor-growth suppression entry in data set [6] is “complete tumor-growth suppression”. In addition, the “antitumor therapeutic effect” value in data set [2] (18 mg/kg, daily (QD) 3 times) was “tumor total disappearance”. In data set [2] (18 mg/kg, daily (QD) 3 times), the toxicity entry is reported as “low toxicity”. Moreover, in the data set on CCRF-CEM/Taxol, the “fold of cross-resistant, CCRF-CEM/Taxol” value is “[0.64x]”.
In data set [5] (20 mg/kg (QD×4)), `Cc1c(CO)c(CO)c2n1Cc1ccccc1C2` [DA-1107, (2-Hydroxymethyl-3-methyl-5,10-dihydropyrrolo[1,2-b]isoquinolin-1-yl)methanol] returned a tumor suppression of 71%. For the same compound, the IC50 was found to be 93 nM with CCRF-CEM/VBL; 81 nM in data set [1]; 616 nM in data set [3]; 281 nM in data set [4]; 98 nM in the data set on CCRF-CEM/Taxol. Moreover, the “fold of cross-resistant, CCRF-CEM/VBL” value in the data set on CCRF-CEM/VBL is “[1.15x]”. Besides, in data set [2] (setting [8]), the “antitumor therapeutic effect” value is “tumor total disappearance”. Besides, in data set [2] (setting [8]), the toxicity result is on record as “low toxicity”. The “fold of cross-resistant, CCRF-CEM/Taxol” value in the data set on CCRF-CEM/Taxol is “[1.21x]”.
With `CNC(=O)OCc1c(COC(=O)NC)c(-c2ccccc2OC)n2c1Cc1ccccc1-2` [DA-1124, Methylcarbamic acid 3-(2-methoxyphenyl)-2-methylcarbamoyloxymethyl-8H-3a-aza-cyclopenta[a]inden-1-ylmethyl ester], the IC50 in the data set with CCRF-CEM/VBL amounted to 243 nM; in data set [1], 136 nM; in data set [3], 1330 nM; in data set [4] it was 151 nM; with CCRF-CEM/Taxol, 360 nM. The “fold of cross-resistant, CCRF-CEM/VBL” value in the data set with CCRF-CEM/VBL is “[1.79x]”. Moreover, the “antitumor therapeutic effect” value in data set [2] (setting [9]) is “tumor total disappearance”. In addition, the toxicity entry in data set [2] (setting [9]) was “low toxicity”. Besides, in the data set with CCRF-CEM/Taxol, the “fold of cross-resistant, CCRF-CEM/Taxol” value was “[2.65x]”.
In the case of `CC(=O)O[C@H]1C(=O)[C@@]2(C)[C@H]([C@H](OC(=O)c3ccccc3)[C@]3(O)C[C@H](OC(=O)[C@H](O)[C@@H](NC(=O)c4ccccc4)c4ccccc4)C(C)=C1C3(C)C)[C@]1(OC(C)=O)CO[C@@H]1C[C@@H]2O` [Taxol, reference compound], the IC50 with CCRF-CEM/VBL is 429 nM; in data set [1], 1.3 nM; in data set [3] it was 35 nM; in data set [4], 1.3 nM; in the data set on CCRF-CEM/Taxol, 1270 nM. For the same compound, the “fold of cross-resistant, CCRF-CEM/VBL” value in the data set on CCRF-CEM/VBL was “[330x]”.
With `CC[C@]1(O)C[C@@H]2CN(CCc3c([nH]c4ccccc34)[C@@](C(=O)OC)(c3cc4c(cc3OC)N(C)[C@H]3[C@@](O)(C(=O)OC)[C@H](OC(C)=O)[C@]5(CC)C=CCN6CC[C@]43[C@@H]65)C2)C1` [Vinblastine, reference compound], the IC50 with CCRF-CEM/VBL was 78 nM; in data set [1], 0.73 nM; in data set [3], 2.9 nM; in data set [4] it was 1.8 nM; in the data set on CCRF-CEM/Taxol, 496 nM. In addition, the “fold of cross-resistant, CCRF-CEM/Taxol” value with CCRF-CEM/Taxol is “[679.5x]”.

The term IC50 denotes the concentration needed to halve the response being measured.
